Test results: ChEMBL document CHEMBL1649259, “High prevalence of CTX-M-type beta-lactamases among clinical isolates of Enterobacteriaceae in Bamako, Mali” (2009)

Columns and labels:
Assay type in all cases: functional
[1] = tested on: Enterobacter cloacae; assay: Antibacterial activity against CTX-M-15 ESBL producing Enterobacter cloacae assessed as resistant isolates by disk diffusion method
[2] = tested on: Enterobacter cloacae; assay: Antibacterial activity against SHV-12 ESBL producing Enterobacter cloacae assessed as resistant isolates by disk diffusion method
[3] = tested on: Escherichia coli; assay: Antibacterial activity against CTX-M-14 ESBL producing Escherichia coli assessed as resistant isolates by disk diffusion method
[4] = tested on: Escherichia coli; assay: Antibacterial activity against CTX-M-15 ESBL producing Escherichia coli assessed as resistant isolates by disk diffusion method
[5] = tested on: Escherichia coli; assay: Antibacterial activity against CTX-M-15 and SHV-27 ESBL producing Escherichia coli assessed as resistant isolates by disk diffusion method
[6] = tested on: Escherichia coli; assay: Antibacterial activity against CTX-M-15 and SHV-12 ESBL producing Escherichia coli assessed as resistant isolates by disk diffusion method
[7] = tested on: Escherichia coli; assay: Antibacterial activity against SHV-12 ESBL producing Escherichia coli assessed as resistant isolates by disk diffusion method
[8] = tested on: Klebsiella pneumoniae; assay: Antibacterial activity against CTX-M-14 ESBL producing Klebsiella pneumoniae assessed as resistant isolates by disk diffusion method
[9] = tested on: Klebsiella pneumoniae; assay: Antibacterial activity against CTX-M-15 ESBL producing Klebsiella pneumoniae assessed as resistant isolates by disk diffusion method
[10] = tested on: Klebsiella pneumoniae; assay: Antibacterial activity against SHV-12 ESBL producing Klebsiella pneumoniae assessed as resistant isolates by disk diffusion method
[11] = tested on: Morganella morganii; assay: Antibacterial activity against CTX-M-14 ESBL producing Morganella morganii assessed as resistant isolates by disk diffusion method
[12] = tested on: Proteus mirabilis; assay: Antibacterial activity against CTX-M-14 ESBL producing Proteus mirabilis assessed as resistant isolates by disk diffusion method

Molecule: COc1cc(Cc2cnc(N)nc2N)cc(OC)c1OC [TRIMETHOPRIM]
- Activity [1]: 100%
- Activity [2]: 89%
- Activity [3]: 100%
- Activity [4]: 95%
- Activity [5]: 100%
- Activity [6]: 100%
- Activity [7]: 100%
- Activity [8]: 100%
- Activity [9]: 100%
- Activity [10]: 100%
- Activity [11]: 100%
- Activity [12]: 100%

Molecule: O=C(O)c1cn(C2CC2)c2cc(N3CCNCC3)c(F)cc2c1=O [CIPROFLOXACIN]
- Activity [3]: 100%
- Activity [4]: 98%
- Activity [5]: 100%
- Activity [6]: 100%
- Activity [7]: 0%
- Activity [8]: 33%
- Activity [10]: 67%
- Activity [11]: 100%
- Activity [12]: 100%

Molecule: CCn1cc(C(=O)O)c(=O)c2cc(F)c(N3CCNCC3)cc21 [NORFLOXACIN]
- Activity [1]: 100%
- Activity [2]: 89%
- Activity [3]: 100%
- Activity [4]: 98%
- Activity [5]: 100%
- Activity [6]: 100%
- Activity [7]: 100%
- Activity [8]: 33%
- Activity [9]: 96%
- Activity [10]: 67%
- Activity [11]: 100%
- Activity [12]: 100%

Molecule: O=C(N[C@H](CO)[C@H](O)c1ccc([N+](=O)[O-])cc1)C(Cl)Cl [CHLORAMPHENICOL]
- Activity [1]: 100%
- Activity [2]: 89%
- Activity [3]: 82%
- Activity [4]: 73%
- Activity [5]: 100%
- Activity [6]: 100%
- Activity [7]: 100%
- Activity [8]: 67%
- Activity [9]: 40%
- Activity [10]: 83%
- Activity [11]: 100%
- Activity [12]: 100%

Molecule: CCn1cc(C(=O)O)c(=O)c2ccc(C)nc21 [NALIDIXIC ACID]
- Activity [1]: 100%
- Activity [2]: 100%
- Activity [3]: 100%
- Activity [4]: 98%
- Activity [5]: 0%
- Activity [6]: 100%
- Activity [7]: 100%
- Activity [8]: 67%
- Activity [9]: 93%
- Activity [10]: 83%
- Activity [11]: 100%
- Activity [12]: 100%

Molecule: CN(C)[C@@H]1C(O)=C(C(N)=O)C(=O)[C@@]2(O)C(O)=C3C(=O)c4c(O)cccc4[C@@](C)(O)[C@H]3C[C@@H]12 [TETRACYCLINE]
- Activity [1]: 100%
- Activity [2]: 89%
- Activity [3]: 82%
- Activity [4]: 88%
- Activity [5]: 0%
- Activity [6]: 100%
- Activity [7]: 100%
- Activity [8]: 67%
- Activity [9]: 84%
- Activity [10]: 50%
- Activity [11]: 100%
- Activity [12]: 100%

Molecule: NC[C@H]1O[C@H](O[C@H]2[C@H](O)[C@@H](O[C@H]3O[C@H](CO)[C@@H](O)[C@H](N)[C@H]3O)[C@H](N)C[C@@H]2N)[C@H](N)C[C@@H]1O [TOBRAMYCIN]
- Activity [1]: 100%
- Activity [2]: 89%
- Activity [3]: 100%
- Activity [4]: 97%
- Activity [5]: 100%
- Activity [6]: 100%
- Activity [7]: 100%
- Activity [8]: 67%
- Activity [9]: 96%
- Activity [10]: 83%
- Activity [11]: 100%
- Activity [12]: 0%

Molecule: GENTAMICIN
- Activity [1]: 100%
- Activity [2]: 12%
- Activity [3]: 100%
- Activity [4]: 83%
- Activity [5]: 100%
- Activity [6]: 100%
- Activity [7]: 0%
- Activity [8]: 67%
- Activity [9]: 89%
- Activity [10]: 33%
- Activity [11]: 100%
- Activity [12]: 0%

Molecule: NCC[C@H](O)C(=O)N[C@@H]1C[C@H](N)[C@@H](O[C@H]2O[C@H](CN)[C@@H](O)[C@H](O)[C@H]2O)[C@H](O)[C@H]1O[C@H]1O[C@H](CO)[C@@H](O)[C@H](N)[C@H]1O [AMIKACIN]
- Activity [1]: 0%
- Activity [2]: 78%
- Activity [3]: 0%
- Activity [4]: 17%
- Activity [5]: 0%
- Activity [6]: 0%
- Activity [7]: 100%
- Activity [8]: 0%
- Activity [9]: 20%
- Activity [10]: 50%
- Activity [11]: 100%
- Activity [12]: 0%
